Reference: article PMC9937012 (Journal of Enzyme Inhibition and Medicinal Chemistry, 2023)

Tests used:
human recombinant MAO-B = target: T1, human recombinant MAO-B (Homo sapiens, UniProt P27338); assay: Inhibition of monoamine oxidase B; type: biochemical; details: for inhibition at 10 µM: read-out: MAO-B % Inhibition at 10 µM, 10 µM; for inhibition at 10 µM / MAO-B % Inhibition at 10 µM: mean of three experiments
T1 sequence (P27338 1-520): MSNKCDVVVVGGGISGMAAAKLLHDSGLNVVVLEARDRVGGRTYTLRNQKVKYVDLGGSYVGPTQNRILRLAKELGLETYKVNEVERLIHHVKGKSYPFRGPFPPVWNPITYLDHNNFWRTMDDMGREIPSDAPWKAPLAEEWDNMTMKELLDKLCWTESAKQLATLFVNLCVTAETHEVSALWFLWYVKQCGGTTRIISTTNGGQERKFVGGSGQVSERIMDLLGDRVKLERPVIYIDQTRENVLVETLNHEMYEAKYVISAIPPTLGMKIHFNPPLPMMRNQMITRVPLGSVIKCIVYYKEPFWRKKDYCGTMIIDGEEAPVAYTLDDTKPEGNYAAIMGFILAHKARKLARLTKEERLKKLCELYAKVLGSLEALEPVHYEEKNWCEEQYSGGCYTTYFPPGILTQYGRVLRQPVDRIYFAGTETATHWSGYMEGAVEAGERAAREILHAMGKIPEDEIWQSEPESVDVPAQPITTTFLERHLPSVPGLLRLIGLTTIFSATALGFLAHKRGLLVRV

human AChE = human AChE (Homo sapiens, UniProt P22303); assay: Inhibition of AChE; type: biochemical; details: for inhibition at 10 µM: read-out: AChE Inhibition at 10 µM [%]
Sequence of human AChE (P22303 32-614): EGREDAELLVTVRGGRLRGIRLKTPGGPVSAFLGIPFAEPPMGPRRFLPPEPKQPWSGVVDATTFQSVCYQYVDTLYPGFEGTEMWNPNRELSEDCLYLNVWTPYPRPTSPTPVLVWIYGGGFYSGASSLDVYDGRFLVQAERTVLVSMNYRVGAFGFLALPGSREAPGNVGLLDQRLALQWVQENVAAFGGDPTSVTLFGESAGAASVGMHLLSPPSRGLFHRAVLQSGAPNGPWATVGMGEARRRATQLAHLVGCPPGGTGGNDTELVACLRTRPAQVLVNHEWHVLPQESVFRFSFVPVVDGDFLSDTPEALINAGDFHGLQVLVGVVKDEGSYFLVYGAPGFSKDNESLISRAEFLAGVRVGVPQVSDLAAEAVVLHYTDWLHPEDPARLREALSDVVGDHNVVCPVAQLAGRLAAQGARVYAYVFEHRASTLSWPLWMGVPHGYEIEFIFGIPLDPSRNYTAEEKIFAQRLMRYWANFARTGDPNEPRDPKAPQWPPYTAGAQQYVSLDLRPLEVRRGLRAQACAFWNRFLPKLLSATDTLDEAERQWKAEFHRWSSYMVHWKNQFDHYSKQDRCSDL

human H1R = human H1R (Homo sapiens, UniProt P35367); assay: Human H1R radioligand displacement assay; type: binding; details: for inhibition at 10 µM: read-out: hH1R Inhibition at 10 µM [%] ±SD (n); for inhibition at 1 µM: read-out: hH1R Inhibition at 1 µM [%] (n)
Sequence of human H1R (P35367 whole entry): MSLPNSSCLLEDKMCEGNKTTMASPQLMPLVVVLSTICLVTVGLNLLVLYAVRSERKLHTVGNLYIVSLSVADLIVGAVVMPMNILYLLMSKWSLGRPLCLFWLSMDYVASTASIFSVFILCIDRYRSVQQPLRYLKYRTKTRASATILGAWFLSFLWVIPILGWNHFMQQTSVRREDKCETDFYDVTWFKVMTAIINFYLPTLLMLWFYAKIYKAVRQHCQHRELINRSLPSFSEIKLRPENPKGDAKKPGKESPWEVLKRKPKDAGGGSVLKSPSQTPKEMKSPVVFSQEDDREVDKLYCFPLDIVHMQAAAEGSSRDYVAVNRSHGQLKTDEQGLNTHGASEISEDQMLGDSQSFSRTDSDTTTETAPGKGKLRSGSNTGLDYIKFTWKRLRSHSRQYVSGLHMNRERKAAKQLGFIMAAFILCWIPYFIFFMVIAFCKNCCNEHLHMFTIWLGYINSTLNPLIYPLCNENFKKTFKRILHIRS

human H4R = human H4R (Homo sapiens, UniProt Q9H3N8); assay: Human H4R radioligand displacement assay; details: read-out: hH4R Inhibition at 10 µM [%] (n)
Sequence of human H4R (Q9H3N8 whole entry): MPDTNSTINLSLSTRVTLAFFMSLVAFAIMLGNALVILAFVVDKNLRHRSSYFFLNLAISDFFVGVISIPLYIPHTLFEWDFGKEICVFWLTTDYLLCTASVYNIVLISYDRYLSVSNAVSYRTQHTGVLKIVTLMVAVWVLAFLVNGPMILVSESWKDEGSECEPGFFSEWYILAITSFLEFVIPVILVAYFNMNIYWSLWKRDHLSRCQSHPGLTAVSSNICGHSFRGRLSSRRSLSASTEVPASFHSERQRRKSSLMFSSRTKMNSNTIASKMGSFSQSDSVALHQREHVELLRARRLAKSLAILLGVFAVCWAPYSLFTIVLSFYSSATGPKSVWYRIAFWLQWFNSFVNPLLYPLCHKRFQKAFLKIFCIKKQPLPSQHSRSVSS

human H3R = human H3R (Homo sapiens, UniProt Q9Y5N1); assay: Human H3R radioligand displacement assay
Sequence of human H3R (Q9Y5N1 whole entry): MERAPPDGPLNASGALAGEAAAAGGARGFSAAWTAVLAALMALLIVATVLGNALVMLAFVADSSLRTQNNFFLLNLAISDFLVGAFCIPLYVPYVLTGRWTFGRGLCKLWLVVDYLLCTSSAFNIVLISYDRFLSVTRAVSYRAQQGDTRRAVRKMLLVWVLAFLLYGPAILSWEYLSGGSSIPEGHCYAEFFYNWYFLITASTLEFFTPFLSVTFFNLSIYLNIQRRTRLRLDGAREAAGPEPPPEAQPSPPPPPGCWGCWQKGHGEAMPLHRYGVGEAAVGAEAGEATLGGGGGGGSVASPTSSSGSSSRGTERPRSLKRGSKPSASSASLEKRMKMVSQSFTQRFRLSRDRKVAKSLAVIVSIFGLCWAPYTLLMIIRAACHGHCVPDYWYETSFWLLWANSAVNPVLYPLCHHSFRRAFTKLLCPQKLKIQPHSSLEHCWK

BuChE from human serum = BuChE from human serum (Homo sapiens, UniProt P06276); assay: Inhibition of BuChE; type: biochemical; details: for inhibition at 10 µM: read-out: hBuChE % Inhibition at 10 µM
Sequence of BuChE from human serum (P06276 29-602): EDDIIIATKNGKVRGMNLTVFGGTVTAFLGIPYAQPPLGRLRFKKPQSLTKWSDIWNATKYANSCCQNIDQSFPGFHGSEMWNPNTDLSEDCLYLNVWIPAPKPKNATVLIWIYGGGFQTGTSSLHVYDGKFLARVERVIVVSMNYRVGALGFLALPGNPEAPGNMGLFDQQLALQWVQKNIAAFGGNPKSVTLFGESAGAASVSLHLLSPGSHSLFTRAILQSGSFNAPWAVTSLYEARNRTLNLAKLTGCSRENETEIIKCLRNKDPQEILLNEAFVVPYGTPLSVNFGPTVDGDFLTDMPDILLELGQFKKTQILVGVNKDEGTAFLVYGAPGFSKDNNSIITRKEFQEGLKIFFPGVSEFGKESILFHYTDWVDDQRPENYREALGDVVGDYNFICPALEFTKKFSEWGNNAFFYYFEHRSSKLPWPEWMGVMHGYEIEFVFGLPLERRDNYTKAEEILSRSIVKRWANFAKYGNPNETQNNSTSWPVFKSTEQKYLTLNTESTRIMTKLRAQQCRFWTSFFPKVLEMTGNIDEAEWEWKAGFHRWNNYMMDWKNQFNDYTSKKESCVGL

human recombinant MAO-A = target: T2, human recombinant MAO-A (Homo sapiens, UniProt P21397); assay: Inhibition of monoamine oxidase A; type: biochemical; details: read-out: MAO-A % Inhibition at 10 µM
T2 sequence (P21397 1-527): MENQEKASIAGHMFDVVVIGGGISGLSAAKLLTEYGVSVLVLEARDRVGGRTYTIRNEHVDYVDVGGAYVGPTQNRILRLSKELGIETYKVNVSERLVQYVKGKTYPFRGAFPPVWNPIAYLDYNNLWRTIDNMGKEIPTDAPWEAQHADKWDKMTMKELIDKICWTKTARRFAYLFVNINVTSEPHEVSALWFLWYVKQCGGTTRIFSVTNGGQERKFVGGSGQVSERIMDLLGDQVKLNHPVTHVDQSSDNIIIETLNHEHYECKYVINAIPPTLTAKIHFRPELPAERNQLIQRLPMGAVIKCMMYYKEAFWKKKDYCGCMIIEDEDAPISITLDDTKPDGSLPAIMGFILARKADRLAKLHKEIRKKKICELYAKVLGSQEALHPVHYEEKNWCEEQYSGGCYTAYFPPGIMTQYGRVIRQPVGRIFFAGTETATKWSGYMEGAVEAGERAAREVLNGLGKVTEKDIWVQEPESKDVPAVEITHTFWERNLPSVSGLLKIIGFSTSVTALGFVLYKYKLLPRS

| SMILES | inhibition at 10 µM (human recombinant MAO-B) [%] | IC50 (human AChE) [µM] | inhibition at 10 µM (human AChE) [%] | inhibition at 10 µM (human H1R) [%] | inhibition at 10 µM (human H4R) [%] | Ki (human H3R) [µM] | IC50 (BuChE from human serum) [µM] | inhibition at 10 µM (BuChE from human serum) [%] | inhibition at 10 µM (human recombinant MAO-A) [%] | IC50 (human recombinant MAO-B) [µM] | MAO-B % Inhibition at 10 µM (human recombinant MAO-B) [%] | inhibition at 1 µM (human H1R) [%] |
| --- | --- | --- | --- | --- | --- | --- | --- | --- | --- | --- | --- | --- |
| O=C(c1nc2ccc(OCCN3CCCC3)cc2s1)N1CCCC1 [Compound 3b, Pyrrolidin-1-yl-(6-(2-(pyrrolidin-1-yl)ethoxy)benzo[d]thiazol-2-yl)methanone] | 47 ± 3 | 0.44 ± 0.1 | 95.3 ± 0.8 | < 0 | 44.9 ± 18.1 | 0.64 | 5.31 ± 0.01 | 70 ± 1 | 58 ± 2 |  |  |  |
| O=C(c1nc2ccc(OCCCN3CCCCC3)cc2s1)N1CCCCC1 [Compound 3d, Piperidin-1-yl-(6-(3-(piperidin-1-yl)propoxy)benzo[d]thiazol-2-yl)methanone] | 28 ± 5 | > 10 | 33.6 ± 10.8 | 65.3 ± 9.2 | 63.1 ± 11.2 | 0.074 |  | 31 ± 1 | 33 ± 3 |  |  |  |
| O=C(c1nc2ccc(OCCCN3CCCC3)cc2s1)N1CCCC1 [Compound 3h, Pyrrolidin-1-yl-(6-(3-(pyrrolidin-1-yl)propoxy)benzo[d]thiazol-2-yl)methanone] | 24 ± 4 | 7.21 ± 2.3 | 56.8 ± 7.14 | 39.1 ± 13 | 54.3 ± 13 | 0.038 |  | 13 ± 2 | 22 ± 4 |  |  |  |
| O=C(c1nc2ccc(OCCCCN3CCCCC3)cc2s1)N1CCCCC1 [Compound 3j, Piperidin-1-yl-(6-(4-(piperidin-1-yl)butoxy)benzo[d]thiazol-2-yl)methanone] | 48 ± 5 | 8.56 ± 2.83 | 54.8 ± 7.01 | 42.8 ± 7.7 | 53.1 ± 11.7 | 0.17 | 3.07 ± 0.24 | 70 ± 2 | 29 ± 5 |  |  |  |
| O=C(c1nc2ccc(OCCCCN3CCCC3)cc2s1)N1CCCC1 [Compound 3n, Pyrrolidin-1-yl(6-(4-(pyrrolidin-1-yl)butoxy)benzo[d]thiazol-2-yl)methanone] | 49 ± 4 | 1.3 ± 0.1 | 83 ± 3.27 | 37.5 ± 7.5 | 57.9 ± 13.3 | 0.059 | 1.32 ± 0.12 | 80 ± 1 | 31 ± 4 |  |  |  |
| O=C(c1nc2ccc(OCCCCCN3CCCCC3)cc2s1)N1CCCCC1 [Compound 3o, Piperidin-1-yl(6-((5-(piperidin-1-yl)pentyl)oxy)benzo[d]thiazol-2-yl)methanone] | > 60 | > 10 | 27.8 ± 5.91 | 91.2 ± 8.2 | 38.8 ± 28 | 0.068 | 2.38 ± 0.32 | 81 ± 1 | 37 ± 4 | 3.04 ± 0.46 | 70 ± 4 |  |
| O=C(c1nc2ccc(OCCCCCN3CCCC3)cc2s1)N1CCCC1 [Compound 3s, Pyrrolidin-1-yl-(6-((5-(pyrrolidin-1-yl)pentyl)oxy)benzo[d]thiazol-2-yl)methanone] | > 60 |  | 58.6 ± 3.73 | 66.2 ± 7.3 | 63.7 ± 13 | 0.036 | 2.35 ± 0.23 | 69 ± 1 | 45 ± 3 | 1.6 ± 0.16 | 75 ± 3 |  |
| O=C(NC1CCCC1)c1nc2ccc(OCCCCCNC3CCCC3)cc2s1 [Compound 3t, N-Cyclopentyl-6-((5-(cyclopentylamino)pentyl)oxy)benzo[d]thiazole-2-carboxamide] | 47 ± 5 | 3.55 ± 0.54 | 75.5 ± 4.73 | 47.3 ± 8.91 | 41.8 ± 31.7 | > 1 | 1.75 ± 0.06 | 84 ± 1 | 39 ± 4 |  |  |  |
| O=C(NCCN1CCCC1)c1nc2ccc(OCCCNCCN3CCCC3)cc2s1 [Compound 4a, N-(2-(Pyrrolidin-1-yl)ethyl)-6-(3-((2-(pyrrolidin-1-yl)ethyl)amino)propoxy)benzo[d]thiazole-2-carboxamide] | 51 ± 1 | 1.24 ± 0.07 | 86.9 ± 1.51 |  |  | 0.053 | 0.169 ± 0.019 | 97 ± 1 | 29 ± 4 |  |  | 28.1 ± 39.1 |
| O=C(c1nc2ccc(OCCCN3CCCCCC3)cc2s1)N1CCCCCC1 [Compound 4b, Azepan-1-yl-(6-(3-(azepan-1-yl)propoxy)benzo[d]thiazol-2-yl)methanone] | 46 ± 5 | 5.91 ± 0.67 | 62.8 ± 3.35 |  |  | 0.012 |  | 51 ± 2 | 29 ± 2 |  |  | 41.9 ± 33.8 |
| CC1CCCN(CCCOc2ccc3nc(C(=O)N4CCCC(C)C4)sc3c2)C1 (centres unmarked) [Compound 4k, (3-Methylpiperidin-1-yl)(6-(3-(3-methylpiperidin-1-yl)propoxy)benzo[d]thiazol-2-yl)methanone] | 48 ± 5 | > 10 | 34.4 ± 2.15 |  |  | 0.064 |  | 30 ± 5 | 32 ± 2 |  |  | 42.9 ± 28.3 |
